Reference: patent publication US20170283440A1, “CARM1 INHIBITORS AND USES THEREOF” (Epizyme, Inc., priority 2014, published 2017)

What was measured:
Human CARM1 (PRMT4) = biological target: T1, Human CARM1 (PRMT4) (Homo sapiens, UniProt Q86X55); assay: CARM1 enzyme assay on peptide substrate (3H-SAM Flashplate); assay type: biochemical; conditions: CARM1 0.25 nM, 3H-SAM 30 nM, peptide 250 nM; read-out: Biochem IC50
T1 construct: Flag-CARM1-His was eluted with 200 ug/ml FLAG peptide in buffer A; made in house; host or cells: HEK 293F cells infected with recombinant baculovirus (pFastBacMam)
Excerpt: S-adenosylmethionine (SAM), S-adenosylhomocysteine (SAH), bicine, Tween20, dimethylsulfoxide (DMSO), bovine skin gelatin (BSG), sodium butyrate and Tris(2-carboxyethyl)phosphine hydrochloride solution (TCEP) were purchased from Sigma-Aldrich at the highest level of purity possible. ^3H-SAM was purchase from American Radiolabeled Chemicals with a specific activity of 80 Ci/mmol. 384-well streptavidin Flashplates were purchased from PerkinElmer.
Peptide representative of human histone H3 residues 16-30 was synthesized with an N-terminal linker-affinity tag motif and a C-terminal amide cap by 21st Century Biochemicals. The peptide was purified by high-performance liquid chromatography (HPLC) to greater than 95% purity and confirmed by liquid chromatography mass spectrometry (LC-MS). The sequence was Biot-Ahx-[…]-amide and contained a monomethylated arginine at position 26 (SEQ ID NO.:1).
Human CARM1 (PRMT4) (NM_199141.1) transcript clone was amplified from an HEK 293 cDNA library, incorporating a flanking 5′ sequence encoding a FLAG tag ([…]) (SEQ ID NO.:2) fused directly to Ala 2 of CARM1 and 3′ sequence encoding a hexa His sequence ([…]) (SEQ ID NO.:3) fused directly to Ser 608. The gene sequence encoding isoform1 containing a deletion of amino acids 539-561 was amplified subsequently and subcloned into pFastBacMam (Viva Biotech).
Recombinant baculovirus were generated according to Bac-to-Bac kit instructions (Life Technologies). Protein over-expression was accomplished by infecting exponentially growing HEK 293F cell culture at 1.3×10^6 cell/ml with virus (MOI=10) in the presence of 8 mM sodium butyrate. Infections were carried out at 37° C. for 48 hours, harvested by centrifugation, and stored at −80° C. for purification.
Column was washed with 500 mM NaCl in buffer A and Flag-CARM1-His was eluted with 200 ug/ml FLAG peptide in buffer A. Pooled fractions were dialyzed in 20 mM Tris, 150 mM NaCl, 5% glycerol and 1 mM DTT, pH 7.8. The purity of recovered protein was 94.
The assays were all performed in a buffer consisting of 20 mM Bicine (pH=7.6), 1 mM TCEP, 0.005% BSG, and 0.002% Tween 20, prepared on the day of use. Compounds in 100% DMSO (1 ul) were spotted into a polypropylene 384-well V-bottom plates (Greiner) using a Platemate Plus outfitted with a 384-channel head (Thermo Scientific). DMSO (1 ul) was added to Columns 11, 12, 23, 24, rows A-H for the maximum signal control and 1 ul of SAH, a known product and inhibitor of CARM1, was added to columns 11, 12, 23, 24, rows I—P for the minimum signal control. A cocktail (40 ul) containing the CARM1 enzyme was added by Multidrop Combi (Thermo-Fisher). The compounds were allowed to incubate with CARM1 for 30 min at room temperature, then a cocktail (10 ul) containing ^3H-SAM and peptide was added to initiate the reaction (final volume=51 ul). The final concentrations of the components were as follows: CARM1 was 0.25 nM, ^3H-SAM was 30 nM, peptide was 250 nM, SAH in the minimum signal control wells was 1 mM, and the DMSO concentration was 2%. The assays were stopped by the addition of non-radiolabeled SAM (10 ul) to a final concentration of 300 uM, which dilutes the ^3H-SAM to a level where its incorporation into the peptide substrate is no longer detectable. 50 ul of the reaction in the 384-well polypropylene plate was then transferred to a 384-well Flashplate and the biotinylated peptides were allowed to bind to the streptavidin surface for at least 1 hour before being washed once with 0.1% Tween20 in a Biotek ELx405 plate washer. The plates were then read in a PerkinElmer TopCount plate reader to measure the quantity of ^3H-labeled peptide bound to the Flashplate surface, measured as disintegrations per minute (dpm) or alternatively, referred to as counts per minute (cpm).
where dpm=disintegrations per minute, cmpd=signal in assay well, and min and max are the respective minimum and maximum signal controls. […]

[1] = test system: asymmetric di-methyl PABP1 in RKO cells; assay: RKO methylation assay (In Cell Western for asymmetric di-methyl PABP1); assay type: cell-based; conditions: Homo sapiens, 48 hours incubation, read-out: Cellular IC50
Summary of the method: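 RKO cells treated 48 h at 37 °C, then fixed, methanol-permeabilized and probed for asymmetric di-methyl PABP1 (16 h, 4 °C) with DRAQ5 counterstain; 800/700 nm intensity ratio read.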

T1 sequence (Q86X55 other isoform, or with tags, fused parts or gaps): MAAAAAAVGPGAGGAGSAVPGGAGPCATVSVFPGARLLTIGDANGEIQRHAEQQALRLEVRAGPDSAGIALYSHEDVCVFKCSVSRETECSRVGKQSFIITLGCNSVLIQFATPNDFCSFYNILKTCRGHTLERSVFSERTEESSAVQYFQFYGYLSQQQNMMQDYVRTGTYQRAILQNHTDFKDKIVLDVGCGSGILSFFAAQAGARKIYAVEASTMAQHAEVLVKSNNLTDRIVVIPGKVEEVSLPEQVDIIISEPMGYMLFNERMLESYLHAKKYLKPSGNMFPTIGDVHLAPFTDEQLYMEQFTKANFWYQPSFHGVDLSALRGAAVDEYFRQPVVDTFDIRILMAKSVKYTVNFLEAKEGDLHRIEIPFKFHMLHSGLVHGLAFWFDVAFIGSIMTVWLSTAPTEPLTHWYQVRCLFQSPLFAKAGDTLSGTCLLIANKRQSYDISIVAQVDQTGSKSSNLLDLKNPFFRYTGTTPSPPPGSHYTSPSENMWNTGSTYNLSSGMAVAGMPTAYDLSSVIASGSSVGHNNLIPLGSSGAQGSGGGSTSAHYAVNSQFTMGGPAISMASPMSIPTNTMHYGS

| SMILES | IC50 (Human CARM1 (PRMT4)) [nM] | IC50 [1] [nM] |
| --- | --- | --- |
| NCC(O)COc1cccc(-c2nc(NCc3ccncc3)c3cnn(C4CC4)c3n2)c1 (stereo not drawn) [Example 12-5] | 100 to 1000 | > 20000 |
| CNCC(O)COc1cccc(-c2cc(N(C)CCOC)n3ncc(C(C)C)c3n2)c1 (stereo not drawn) [Example 12-6] | < 100 | > 20000 |
| CC(C)(C)c1cnn2c(NC3CCOCC3)cc(-c3cccc(OCC(O)CN)c3)nc12 (stereo not drawn) [Example 12-8] | < 100 | > 20000 |
| CNCC(O)COc1cc(Cl)cc(-c2cc(N3C[C@H]4CC[C@@H](C3)O4)n3ncc(C(C)C)c3n2)c1 (stereo partly drawn) [Example 12-9] | 100 to 1000 | > 20000 |
| CNCC(O)COc1cc(NC)cc(-c2cc(NC3CCOCC3)c3cnn(C(C)C)c3n2)c1 (stereo not drawn) [Example 13-4] | < 100 | 10000 to 20000 |
| NCC(O)COc1cccc(-c2nc(NCc3ccccn3)c3cnn(C4CC4)c3n2)c1 (stereo not drawn) [Example 13-5] | 100 to 1000 | > 20000 |
| CNCC(O)COc1cccc(-c2cc(N(C)[C@@H]3CCOC3)n3ncc(C(C)C)c3n2)c1 (stereo partly drawn) [Example 13-6] | < 100 | > 20000 |
| COc1cc(OCC(O)CN)cc(-c2cc(N(C3CCOCC3)C3CC3)n3ncc(C(C)C)c3n2)c1 (stereo not drawn) [Example 13-8] | 100 to 1000 | > 20000 |
| CC(C)n1ncc2c(N3CCOCC3)cc(-c3cccc(CCC(O)CN)c3)nc21 (stereo not drawn) [Example 13-9] | 100 to 1000 | > 20000 |
| CNCC(O)COc1cc(OC)cc(-c2cc(NC3CCOCC3)c3cnn(C(C)C)c3n2)c1 (stereo not drawn) [Example 14-4] | < 100 | > 20000 |
| Cn1ccc(CNc2nc(-c3cccc(OCC(O)CN)c3)nc3c2cnn3C2CC2)n1 (stereo not drawn) [Example 14-5] | 100 to 1000 | > 20000 |
| CCN(c1cc(-c2cc(OC)cc(OCC(O)CN)c2)nc2c(C(C)C)cnn12)C1CCOCC1 (stereo not drawn) [Example 14-8] | < 100 | > 20000 |
| CNCC(O)COc1cccc(-c2nc(NCc3cccc4ccnn34)c3cnn(C4CC4)c3n2)c1 (stereo not drawn) [Example 14-9] | 100 to 1000 | > 20000 |
| Cc1cc(CNc2nc(-c3cccc(OCC(O)CN)c3)nc3c2cnn3C2CC2)no1 (stereo not drawn) [Example 15-5] | 100 to 1000 | > 20000 |
| C#Cc1cc(OCC(O)CNC)cc(-c2cc(N3CCOCC3)n3ncc(C(C)C)c3n2)c1 (stereo not drawn) [Example 15-6] | < 100 | > 20000 |
| CC(C)(C)c1cnn2c(NC3CCOCC3)cc(-c3cc(Cl)cc(OCC(O)CN)c3)nc12 (stereo not drawn) [Example 15-8] | 100 to 1000 | > 20000 |
| CNCC(O)COc1cc(OC)cc(-c2cc(N3[C@@H]4CC[C@@H]3COC4)c3cnn(C(C)C)c3n2)c1 (stereo partly drawn) [Example 17-4] | < 100 | 10000 to 20000 |
| NCC(O)COc1cccc(-c2nc(N3C4CCC3COC4)c3cnn(C4CC4)c3n2)c1 (stereo not drawn) [Example 17-5] | < 100 | > 20000 |

Continued, values first:

| IC50 (Human CARM1 (PRMT4)) [nM] | IC50 [1] [nM] | SMILES |
| --- | --- | --- |
| < 100 | > 20000 | CNCC(O)COc1cc(-c2cc(NC3CCOCC3)c3cnn(C(C)C)c3n2)cc(C2CC2)c1 (stereo not drawn) [Example 16-4] |
| < 100 | > 20000 | NCC(O)COc1cccc(-c2nc(N3CC4CCC(C3)O4)c3cnn(C4CC4)c3n2)c1 (stereo not drawn) [Example 16-5] |
| 100 to 1000 | > 20000 | C=Cc1cc(OCC(O)CNC)cc(-c2cc(N3CCOCC3)n3ncc(C(C)C)c3n2)c1 (stereo not drawn) [Example 17-6] |
| < 100 | 10000 to 20000 | CNCC(O)COc1cc(OC)cc(-c2cc(N3CCOCC3)n3ncc(C(=O)OC)c3n2)c1 (stereo not drawn) [Example 17-8] |
| 100 to 1000 | > 20000 | CNCC(O)COc1cccc(-c2nc(NCc3cccnc3)c3cnn(C4CC4)c3n2)c1 (stereo not drawn) [Example 17-9] |
| < 100 | > 20000 | NCC(O)COc1cccc(-c2nc(NCc3nccs3)c3cnn(C4CC4)c3n2)c1 (stereo not drawn) [Example 18-5] |
| < 100 | 5000 to 10000 | CNCC(O)COc1cc(NC)cc(-c2cc(N(C)C3CCOCC3)c3cnn(C(C)C)c3n2)c1 (stereo not drawn) [Example 19-4] |
| 100 to 1000 | > 20000 | CNCC(O)COc1cccc(-c2nc(NC3CCOCC3)c3cnn(C4CC4)c3n2)c1 (stereo not drawn) [Example 19-5] |
| < 100 | > 20000 | CNCC(O)COc1cccc(-c2cc(NC3CCOCC3)n3ncc(C(C)(C)C)c3n2)c1 (stereo not drawn) [Example 19-6] |
| 100 to 1000 | > 20000 | CNCC(O)COc1cccc(-c2nc(NCc3cc(C)on3)c3cnn(C4CC4)c3n2)c1 (stereo not drawn) [Example 19-9] |
| < 100 | 10000 to 20000 | CNCC(O)COc1cc(OC)cc(-c2cc(NC3CCOCC3)c3c(C)nn(C(C)C)c3n2)c1 (stereo not drawn) [Example 20-4] |
| < 100 | > 20000 | CNCC(O)COc1cccc(-c2nc(N3CCOCC3)c3cnn(C(C)(C)C)c3n2)c1 (stereo not drawn) [Example 20-5] |
| 100 to 1000 | > 20000 | CCc1cc(OCC(O)CNC)cc(-c2cc(N3CCOCC3)n3ncc(C(C)C)c3n2)c1 (stereo not drawn) [Example 20-6] |
| 100 to 1000 | > 20000 | CNCC(O)COc1cccc(-c2cc(N3CCOC3=O)n3ncc(C(C)C)c3n2)c1 (stereo not drawn) [Example 20-9] |
| < 100 | > 20000 | CNCC(O)COc1cc(OC(C)C)cc(-c2cc(N3CCOCC3)c3cnn(C(C)C)c3n2)c1 (stereo not drawn) [Example 21-4] |
| 100 to 1000 | > 20000 | CNCC(O)COc1cccc(-c2nc(NCc3ccncc3)c3cnn(C4CC4)c3n2)c1 (stereo not drawn) [Example 21-5] |
| < 100 | > 20000 | CNCC(O)COc1cc(NC)cc(-c2cc(N3CCOCC3)n3ncc(C(C)C)c3n2)c1 (stereo not drawn) [Example 21-6] |
| 100 to 1000 | > 20000 | CC(C)n1ncc2c(N3CCOCC3)cc(-c3cccc(SCC(O)CN)c3)nc21 (stereo not drawn) [Example 21-9] |
| < 100 | 5000 to 10000 | CNCC(O)COc1cc(Cl)cc(-c2cc(NC3CCOCC3)c3c(C)nn(C(C)C)c3n2)c1 (stereo not drawn) [Example 22-4] |
| 100 to 1000 | > 20000 | CNCC(O)COc1cccc(-c2nc(NCc3ccccn3)c3cnn(C4CC4)c3n2)c1 (stereo not drawn) [Example 22-5] |
| < 100 | > 20000 | CNCC(O)COc1cc(OC)cc(-c2cc(N3CCOCC3)n3ncc(C(C)C)c3n2)c1 (stereo not drawn) [Example 22-6] |
| < 100 | > 20000 | CNCC(O)COc1cc(OC)cc(-c2cc(N[C@H]3CCOC3)n3ncc(C(C)C)c3n2)c1 (stereo partly drawn) [Example 23-6] |
| 100 to 1000 | > 20000 | CNCC(O)COc1cc(CO)cc(-c2cc(NC3CCOCC3)c3cnn(C(C)C)c3n2)c1 (stereo not drawn) [Example 23-9] |
| 100 to 1000 | > 20000 | CC(C)n1ncc2c(N3CCOCC3)cc(-c3cc(OCC(O)CN)cc(OC(F)(F)F)c3)nc21 (stereo not drawn) [Example 24-4] |
| < 100 | > 20000 | Cc1cc(CNc2nc(-c3cccc(OCC(O)CN)c3)nc3c2cnn3C2CC2)n(C)n1 (stereo not drawn) [Example 24-5] |
| < 100 | > 20000 | CNCC(O)COc1cc(OC)cc(-c2cc(N[C@@H]3CCOC3)n3ncc(C(C)C)c3n2)c1 (stereo partly drawn) [Example 24-6] |
| 100 to 1000 | > 20000 | CC(C)n1ncc2c(NS(=O)(=O)N(C)C)cc(-c3cccc(OCC(O)CN)c3)nc21 (stereo not drawn) [Example 24-9] |
